Measurements from patent publication US11555036B2, “FGFR4 inhibitor, preparation method therefor and pharmaceutical use thereof” (Abbisko Therapeutics Co., Ltd., priority 2016, dated 2023).

What was measured:
FGFR4 = FGFR4 (Homo sapiens, UniProt P22455); experiment: FGFR4 Caliper Assay (in vitro biochemical kinase analysis of FGFR4); settings: read-out: Enzymatic activity FGFR4 IC50
Method: I. In Vitro Biochemical Kinase Analysis of FGFR4
FGFR4 Caliper Assay was used in the present invention to determine the inhibitory activities of the compounds against FGFR4. The detailed experimental procedure was as follows.
2. A reaction system is a mixture solution of 50 mM HEPES, pH 7.5, 1 mM DTT, 0.02% Tween 20, 0.02% BSA, 0.6% DMSO, 10 mM beta glycerol phosphate and 10 μM sodium orthovanadate and 16 mM MgCl2.
3. The reaction system was incubated at 30° C. for 40 minutes.
4. The reaction was terminated by adding a stop solution (100 mM HEPES, pH 7.5, 5% DMSO, 0.1% Caliper coating reagent, 10 mM EDTA and 0.015% Brij35).
5. The culture plate with the terminated kinase reaction was transferred to the Caliper LC 3000 workstation to read the data, the phosphorylated and unphosphorylated peptides were separated by using the Caliper microfluid migration shift technique, and the analyte was transferred by allowing a constant buffer flow through the chip, the migration of the substrate peptide was monitored by the labeled fluorescent signal, and the kinase activity was calculated by using the amount of the phosphate-based peptide formed.
6. Finally, IC50 values were determined by non-linear regression analysis of percent inhibition at different compound concentrations.

[1] = tested on: Huh7 hepatocellular carcinoma cells; experiment: FGFR4 cell proliferation experiment, Cell Titer Glo (CTG); format: cell-based; settings: Homo sapiens, Huh-7, 72 h, HuH-7 cells, 3 days; for IC50: concentration leading to absolute half growth inhibition; for EC50: concentration leading to half maximal growth inhibition
Method: II. FGFR4 Cell Proliferation Experiment
Cell Titer Glo (CTG) experiment was used in the present invention to evaluate the functional effects of the compounds on cell proliferation. […] Compound-mediated inhibition of cell proliferation/survival was assessed by quantification of cellular ATP levels using CTG reagent (Promega, #G7573). The specific experimental procedure was as follows:
2. 10 μL of medium containing a compound concentration of 10 fold of its final test concentration was added;
3. The dose effect was evaluated by a 5-fold serial dilution of the test compound, starting from 10 μM.
4. After cells incubation for 3 days at 37° C. under 5% CO2, the effect of the inhibitor on cell proliferation was quantified after adding 50 μL of CTG and testing with luminescence.

Chain of FGFR4 (P22455 22-802): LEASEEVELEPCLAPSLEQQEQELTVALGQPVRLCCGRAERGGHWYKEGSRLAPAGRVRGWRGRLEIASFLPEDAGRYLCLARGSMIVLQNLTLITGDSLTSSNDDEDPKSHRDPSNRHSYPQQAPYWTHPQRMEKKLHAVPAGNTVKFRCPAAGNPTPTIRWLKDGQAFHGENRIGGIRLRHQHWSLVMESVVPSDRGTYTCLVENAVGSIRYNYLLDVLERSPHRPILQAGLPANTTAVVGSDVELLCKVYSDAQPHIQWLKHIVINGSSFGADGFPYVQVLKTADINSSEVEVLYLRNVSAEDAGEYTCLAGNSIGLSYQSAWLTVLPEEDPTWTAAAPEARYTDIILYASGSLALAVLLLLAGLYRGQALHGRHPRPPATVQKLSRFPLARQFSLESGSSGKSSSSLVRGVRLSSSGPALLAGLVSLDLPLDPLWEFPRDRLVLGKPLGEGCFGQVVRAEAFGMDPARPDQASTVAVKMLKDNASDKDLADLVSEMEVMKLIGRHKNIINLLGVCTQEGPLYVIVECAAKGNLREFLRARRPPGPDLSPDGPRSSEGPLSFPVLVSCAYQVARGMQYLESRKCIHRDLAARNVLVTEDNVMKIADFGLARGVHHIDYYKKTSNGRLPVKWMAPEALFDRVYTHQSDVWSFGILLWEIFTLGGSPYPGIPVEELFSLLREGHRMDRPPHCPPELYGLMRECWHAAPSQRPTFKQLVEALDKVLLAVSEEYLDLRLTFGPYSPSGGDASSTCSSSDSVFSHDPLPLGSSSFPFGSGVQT

IC50 (FGFR4) [nM]	IC50 [1] [nM]	EC50 [1] [nM]	SMILES
8.5	13.6	11.4	C=CC(=O)N[C@H]1CCOC[C@H]1Nc1ncc2cc(-c3c(F)c(OC)cc(OC)c3F)nc(N3CC(C)(OC)C3)c2n1 [Example 790, N-((3S,4S)-3-((6-(2,6-difluoro-3,5-dimethoxyphenyl)-8-(3-methoxy-3-methylazetidin-1-yl)pyrido[3,4-d]py-rimidin-2-yl)amino)tetrahydro-2H-pyran-4-yl)acrylamide]
2.9	8.1	6.8	C=CC(=O)N[C@H]1COC[C@H]1Nc1ncc2cc(-c3c(F)c(OC)cc(OC)c3F)nc(N3CCC(C)(O)C3)c2n1 (stereo partly drawn) [Example 772, N-((3R,4S)-4-((6-(2,6-difluoro-3,5-dimethoxyphenyl)-8-(3-hydroxy-3-methylpyrrolidin-1-yl)pyrido[3,4-d]py-rimidin-2-l)amino)tetrahydrofuran-3-yl)acrylamide]
22	53.7	31.5	C=CC(=O)N[C@H]1COC[C@H]1Nc1cc2c(NCC3CC3)nc(-c3c(Cl)c(OC)cc(OC)c3Cl)cc2cn1 [Example 126, N-((3R,4S)-4-((5-((cyclopropylmethyl)amino)-7-(2,6-dichloro-3,5-dimethoxy-phenyl)-2,6-naphthyridin-3-yl)amino)tetrahydrofuran-3-yl)acrylamide]
4.2	17.3	10.1	C=CC(=O)N[C@H]1COC[C@H]1Nc1ncc2cc(-c3c(F)c(OC)cc(OC)c3F)nc(-c3cnn(C)c3)c2n1 [Example 637, N-((3R,4S)-4-((6-(2,6-difluoro-3,5-dimethoxyphenyl)-8-(1-methyl-1H-py-razol-4-yl)pyrido[3,4-d]pyrimidin-2-yl)amino)tetrahydrofuran-3-yl)acryl-amide]
7.8	15.9	12.6	C=CC(=O)N[C@H]1CCOC[C@H]1Nc1ncc2cc(-c3c(F)c(OC)cc(OC)c3F)nc(N3CCOCC3)c2n1 [Example 789, N-((3S,4)S-3-((6-(2,6-difluoro-3,5-dimethoxyphenyl)-8-morpholinopy-rido[3,4-d]pyrimidin-2-yl)amino)tetra-hydro-2H-pyran-4-yl)acrylamide]
17.3	58	23.8	C=CC(=O)N[C@H]1COC[C@H]1Nc1ncc2cc(-c3c(Cl)c(OC)cc(OC)c3Cl)nc(NCc3cnn(C)c3)c2n1 [Example 459, N-((3R,4S)-4-((6-(2,6-dichloro-3,5-di-methoxyphenyl)-8-(((1-methyl-1H-pyrazol-4-yl)methyl)amino)pyrido[3,4-d]pyrimidin-2-yl)amino)tetrahydro-furan-3-yl)acrylamide]
3.5	17.8	9.9	C=CC(=O)N[C@H]1COC[C@H]1Nc1ncc2cc(-c3c(Cl)c(OC)cc(OC)c3Cl)nc(NC[C@H]3CCCO3)c2n1 [Example 438A, N-((3R,4S)-4-((6-(2,6-dichloro-3,5-di-methoxyphenyl)-8-((((R)-tetrahydro-furan-2-yl)methyl)amino)pyrido[3,4-d]pyrimidin-2-yl)amino)tetrahydro-furan-3-yl)acrylamide]
8.4	18.2	9.6	C=CC(=O)N[C@H]1COC[C@H]1Nc1ncc2cc(-c3c(Cl)c(OC)cc(OC)c3Cl)nc(NCC)c2n1 [Example 434]
8.9	27.8	20.8	C=CC(=O)N[C@H]1CCOC[C@H]1Nc1ncc2cc(-c3c(F)c(OC)cc(OC)c3F)nc(N3CC(OC)C3)c2n1 [Example 775, N-((3S,4S)-3-((6-(2,6-difluoro-3,5-dimethoxyphenyl)-8-(3-methoxyazetidin-1-yl)pyrido[3,4-d]pyrimidin-2-yl)amino)tetrahydro-2H-pyran-4-yl)acrylamide]
78.5	1210	338	C=CC(=O)Nc1cnn(CCOC)c1-c1cc2cnc(-c3c(Cl)c(OC)cc(OC)c3Cl)cc2cn1 [Example 723, N-(5-(7-(2,6-dichloro-3,5-dimethoxyphenyl)-2,6-naphthyridin-3-yl)-1-(2-methoxyethyl)-1H-pyrazol-4-yl)acrylamide]
9.1	35.1	15.8	C=CC(=O)N[C@H]1COC[C@H]1Nc1ncc2cc(-c3c(Cl)c(OC)cc(OC)c3Cl)nc(NC[C@@H]3CCCO3)c2n1 [Example 438B, N-((3R,4S)-4-((6-(2,6-dichloro-3,5-di-methoxyphenyl)-8-((((S)-tetrahydro-furan-2-yl)methyl)amino)pyrido[3,4-d]pyrimidin-2-yl)amino)tetrahydro-furan-3-yl)acrylamide]
7.9	11.1	7.8	C=CC(=O)N[C@H]1COC[C@H]1Nc1ncc2cc(-c3c(Cl)c(OC)cc(OC)c3Cl)nc(N3CC4CC3CO4)c2n1 (stereo partly drawn) [Example 763, N-((3R,4S)-4-((8-(2-oxa-5-azabicyclo[2.2.1]heptan-5-yl)-6-(2,6-dichloro-3,5-dimethoxyphenyl)py-rido[3,4-d]pyrimidin-2-yl)a-mino)tetrahydrofuran-3-yl)acrylamide]
14.7	22.6	16	C=CC(=O)N[C@H]1COC[C@H]1Nc1ncc2cc(-c3c(Cl)c(OC)cc(OC)c3Cl)nc(N3CC4(COC4)C3)c2n1 [Example 668, N-((3R,4S)-4-((6-(2,6-dichloro-3,5-dimethoxyphenyl)-8-(2-oxa-6-aza-spiro[3.3]heptan-6-yl)pyrido[3,4-d]py-rimidin-2-yl)amino)tetrahydrofuran-3-yl)acrylamide]
14.3	51.8	20.7	C=CC(=O)N[C@H]1COC[C@H]1Nc1ncc2cc(-c3cc(OC)cc(OC)c3Cl)nc(-c3cnn(C)c3)c2n1 [Example 761, N-((3R,4S)-4-((6-(2-chloro-3,5-dimeth-oxyphenyl)-8-(1-methyl-1H-pyrazol-4-yl)pyrido[3,4-d]pyrimidin-2-yl)ami-no)tetrahydrofuran-3-yl)acrylamide]
8.2	70.8	15.9	C=CC(=O)N[C@H]1COC[C@H]1Nc1ncc2cc(-c3c(Cl)c(OC)cc(OC)c3Cl)nc(NC3CCOC3)c2n1 (stereo partly drawn) [Example 443, N-((3R,4S)-4-((6-(2,6-dichloro-3,5-di-methoxyphenyl)-8-((tetrahydrofuran-3-yl)amino)pyrido[3,4-d]pyrimidin-2-yl)amino)tetrahydrofuran-3-yl) acrylamide]
22.5	238	47	C=CC(=O)N[C@H]1COC[C@H]1Nc1ncc2cc(-c3c(Cl)c(OC)cc(OC)c3Cl)nc(NCCOC)c2n1 [Example 422, N-((3R,4S)-4-((6-(2,6-dichloro-3,5-di-methoxyphenyl)-8-((2-methoxyethyl)amino)pyrido[3,4-d]pyrimidin-2-yl)a-mino)tetrahydrofuran-3-yl)acrylamide]
3.1	6.2	4.8	C=CC(=O)N[C@H]1CCOC[C@H]1Nc1ncc2cc(-c3c(F)c(OC)cc(OC)c3F)nc(N3CCC3)c2n1 [Example 792, N-((3S,4S)-3-((8-(azetidin-1-yl)-6-(2,6-difluoro-3,5-dimethoxyphenyl)py-rido[3,4-d]pyrimidin-2-yl)amino)tetra-hydro-2H-pyran-4-yl)acrylamide]
1.8	2.3	2	C=CC(=O)N[C@H]1COC[C@H]1Nc1ncc2cc(-c3c(F)c(OC)cc(OC)c3F)nc(N3CC(C)(O)C3)c2n1 [Example 773, N-((3R,4S)-4-((6-(2,6-difluoro-3,5-dimethoxyphenyl)-8-(3-hydroxy-3-meth-ylazetidin-1-yl)pyrido[3,4-d]py-rimidin-2-yl)amino)tetrahydrofuran-3-yl)acrylamide]
6.3	10	6.9	C=CC(=O)N[C@H]1COC[C@H]1Nc1ncc2cc(-c3c(F)c(OC)cc(OC)c3F)nc(N3CCOCC3)c2n1 [Example 687, N-((3R,4S)-4-((6-(2,6-difluoro-3,5-dimethoxyphenyl)-8-morpholino-pyrido[3,4-d]pyrimidin-2-yl)a-mino)tetrahydrofuran-3-yl)acrylamide]
2410	> 10000	> 10000	C=CC(=O)N[C@H]1COC[C@H]1Nc1ncc2cc(-c3cccc(OC)c3F)nc(NC)c2n1 [Example 770, N-((3R,4S)-4-((6-(2-fluoro-3-meth-oxyphenyl)-8-(methylamino)pyrido[3,4-d]pyrimidin-2-yl)amino)tetrahydro-furan-3-yl)acrylamide]
